Reference: US20220233469A1, “METHODS, COMPOSITIONS AND DEVICES FOR TREATING NEUROINFLAMMATORY CONDITIONS” (ALYRA BIOTECH PTY LTD, priority 2019, published 2022)
“Also recorded” adds a separate entry of the source.

What was measured:
[1] = tested on: HEK293/Null; test: RIG-I-/MDA-5- control cell line HEK293/Null stimulated with hIFNα; format: cell-based, human; settings: stimulated with recombinant hIFNα at 100 IU/mL
Procedure: RIG-I and MDA-5 stimulation were tested by assessing IRF3 activation in HEK293 cells expressing human RIG-I or MDA-5 genes. The activity of the test articles was tested on human RIG-I and MDA-5 expressing cells as a potential agonist or antagonist. The test articles were evaluated at one concentration and compared to control ligands. This step was performed in triplicate. The results are provided as Relative Luminescence Units (RLUs).
RIG-I^−/MDA-5^− Cell Lines: HEK293/Null: Control for human RIG-I and MDA-5 Poly(I:C)HMW/LyoVec at 1 μg/mL. Antagonist: 500 ng/mL 5′ppp-dsRNA/LyoVec at 1 μg/mL. Antagonist: 500 ng/mL hIFNα at 1000 IU/mL. Antagonist: 100 IU/mL.
In a 96-well plate (200 μL total volume) containing the appropriate cells (25,000-50,000 cells/well), 20 μL of the test article or of the positive control ligand was added to the wells. For the antagonist assay, the test article was incubated with the cells, at 37° C. with 5% CO2, for 30 minutes prior to the addition of the positive control ligand to the wells. After 20 hour incubation, activation of the IRF pathway was monitored using a luciferase detection assay. Luciferase activity was assayed in triplicate from the supernatant of the induced cells, and the relative luminescence units (RLUs) are detected by a Promega GloMax Luminometer.

[2] = tested on: HEK293/Null1; test: TLR-/NLR- control cell line HEK293/Null1 stimulated with TNFa; format: cell-based, human; settings: stimulated with TNFa at 10 ng/mL
Procedure: (§1) Toll-Like Receptor (TLR), NOD-Like Receptor (NLR) and C-Type Lectin Receptor (CLR) stimulation were tested by assessing NF-κB activation in HEK293 cells expressing a given TLR, NLR or CLR. The activity of the test articles was tested at one concentration and compared to control ligands. These steps were performed in triplicate. In a 96-well plate (200 μL total volume) containing the appropriate cells (50,000-75,000 cells/well), 20 μL of the test article or the positive control ligand was added to the wells. For the antagonist assay, the test article was incubated with the cells, at 37° C. with 5% CO2, for 30 minutes prior to the addition of the positive control ligand to the wells. The media added to the wells was designed for the detection of NF-κB induced SEAP expression. After a 16-24 hr incubation the optical density (OD) was read at 650 nm on a Molecular Devices SpectraMax 340PC absorbance detector.

[3] = tested on: dorsal horn astrocytes; test: Activation of dorsal horn astrocytes (GFAP immunofluorescence) after intrauterine LPS in mice; format: in vivo, mouse; settings: for LPS-induced activation of spinal astrocytes (GFAP staining, dorsal horn): intrauterine, given with LPS (100 ug/kg) once per estrus cycle over three cycles, Amitriptyline 28 ug/kg, TAK-242 36 ug/kg; for integrated density of GFAP staining (activated astrocytes within the dorsal horn): level of T12, intrauterine LPS with Amitriptyline or TAK-242 vs LPS, p=0.0002
Excerpt: (§2) We first recognised that neuroinflammatory conditions of the nervous system may be, at least in part, due to activation of the innate immune system within the uterus resulting in activation of glial cells in the dorsal horn of the spinal cord. To model this in mice, a study was undertaken administering LPS (lipopolysaccharide), a potent immune activator, to the uterus of mice once per estrus cycle over three cycles.
(§3) Studies were also undertaken to investigate whether a small dose of amitriptyline, an inhibitor of the pattern recognition receptors TLR, NOD, CLR, RIG-1 and MDA-5, administered with LPS within the uterus could prevent LPS-induced activation of spinal glial cells. To confirm that the amitriptyline was acting, at least in part, by blocking TLRs, an investigation was also conducted on mice given a small dose of pure TLR4 blocker-TAK-242—with LPS.
(§4) The Nonsurgical Embryo Transfer Device (Paratech, USA) was used to allow insertion of fluid into the uterus with brief, mild discomfort to the mouse, and no need for anaesthesia. Following three estrus cycles, glial activation in the dorsal horn of the spinal cord was measured using immunofluorescence. Activation of dorsal horn astrocytes was assessed using GFAP. Activation of dorsal horn microglia was assessed using Iba1. We compared the activation of spinal glia in mice with intrauterine administration of saline only, saline and LPS (100 ug/kg), saline LPS (100 ug/kg) and Amitriptyline (28 ug/kg), and saline LPS (100 ug/kg) and TAK-242 (36 ug/kg).
(§5) The spinal cord was assessed using immunohistochemistry techniques across levels T10, T11, T12, T13, L1, L2, L3, L4, L5, L6, S1 and S2 where T represents the thoracic segment of the spinal cord, L represents the lumbar segment of the spinal cord and S represents the sacral segment of the spinal cord. The regions of interest in the dorsal horn include Laminae I, II, III and IV. Changes in spinal glial reactivity are causally linked to all known models of neuroinflammatory medical conditions.

[4] = Facial Grimace Score after intrauterine LPS in mice; format: in vivo, mouse; settings: for Facial Grimace Score: mice, 24 hours following the final LPS stimulation
[5] = tested on: spinal glial cells; test: Spinal glial activation after intrauterine LPS in mice; format: in vivo, mouse; settings: for LPS-induced spinal glial activation: intrauterine co-administration with LPS (100 ug/kg), Amitriptyline 28 ug/kg, TAK-242 36 ug/kg
Excerpt: as §2, §3, §4, §5

[6] = used orally in clinical practice; cited from earlier work
[7] = tested on: HEK293/Null2; test: TLR-/NLR- control cell line HEK293/Null2 stimulated with TNFa; format: cell-based, human; settings: stimulated with TNFa at 10 ng/mL
Procedure: as §1

[8] = tested on: dorsal horn microglia; test: Activation of dorsal horn microglia (Iba1 immunofluorescence) after intrauterine LPS in mice; format: in vivo, mouse; settings: for LPS-induced activation of spinal microglia (Iba1 staining, dorsal horn): intrauterine, given with LPS (100 ug/kg) once per estrus cycle over three cycles, Amitriptyline 28 ug/kg, TAK-242 36 ug/kg
Excerpt: as §2, §3, §4, §5

[9] = target: T1, Human TLR7 (Homo sapiens, UniProt Q9NYK1); test: Human TLR antagonist screening: NF-κB activation in HEK293 cells, TLR7; format: cell-based; settings: antagonist mode; test article 1 μM, +CL307 10 ng/ml; No Sample 13, Control- 1
T1 construct: expressed in transfected cells; host or cells: HEK293
T1 sequence (Q9NYK1 27-1049): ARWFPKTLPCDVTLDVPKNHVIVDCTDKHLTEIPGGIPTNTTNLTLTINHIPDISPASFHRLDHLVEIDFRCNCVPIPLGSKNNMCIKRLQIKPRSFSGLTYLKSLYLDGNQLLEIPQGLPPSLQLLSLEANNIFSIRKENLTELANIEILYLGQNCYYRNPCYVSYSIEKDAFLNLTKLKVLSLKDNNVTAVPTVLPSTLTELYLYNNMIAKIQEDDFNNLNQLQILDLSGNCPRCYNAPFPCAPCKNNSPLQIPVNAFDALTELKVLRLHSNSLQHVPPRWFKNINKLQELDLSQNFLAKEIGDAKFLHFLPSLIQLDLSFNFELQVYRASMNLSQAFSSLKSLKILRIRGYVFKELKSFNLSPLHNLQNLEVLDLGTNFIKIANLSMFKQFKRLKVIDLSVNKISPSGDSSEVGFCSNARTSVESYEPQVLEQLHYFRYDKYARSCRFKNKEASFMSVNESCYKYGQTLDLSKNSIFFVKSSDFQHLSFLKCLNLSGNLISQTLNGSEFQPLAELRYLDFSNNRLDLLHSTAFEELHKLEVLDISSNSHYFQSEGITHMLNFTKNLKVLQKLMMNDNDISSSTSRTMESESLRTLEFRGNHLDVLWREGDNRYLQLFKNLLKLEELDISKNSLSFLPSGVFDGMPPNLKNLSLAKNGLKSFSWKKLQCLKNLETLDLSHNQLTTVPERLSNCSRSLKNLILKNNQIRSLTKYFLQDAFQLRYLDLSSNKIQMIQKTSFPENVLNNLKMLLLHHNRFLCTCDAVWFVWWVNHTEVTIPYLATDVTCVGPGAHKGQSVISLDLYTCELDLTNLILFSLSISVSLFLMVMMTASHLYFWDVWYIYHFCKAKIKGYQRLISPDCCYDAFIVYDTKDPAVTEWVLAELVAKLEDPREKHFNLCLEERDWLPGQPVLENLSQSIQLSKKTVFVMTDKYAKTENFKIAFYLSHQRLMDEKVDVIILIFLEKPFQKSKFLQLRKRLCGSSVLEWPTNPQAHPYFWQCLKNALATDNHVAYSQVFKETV
Procedure: as §1, with “triplicate. […] CL307 at 1 μg/mL Antagonist: 10 ng/mL.” for “triplicate.”, “expression.” for “expression. After a 16-24 hr incubation the optical density (OD) was read at 650 nm on a Molecular Devices SpectraMax 340PC absorbance detector.”

[10] = intrauterine LPS with Amitriptyline or TAK242
[11] = intrauterine LPS (100 ug/kg) compared with saline

Compound	effect on control cell line HEK293/Null1 [2]	LPS-induced activation of spinal astrocytes (GFAP staining, dorsal horn) [3]	integrated density of GFAP staining (activated astrocytes within the dorsal horn) [3]	Facial Grimace Score [4, 10]	LPS-induced spinal glial activation [5]	effect on control cell line HEK293/Null2 [7]	LPS-induced activation of spinal microglia (Iba1 staining, dorsal horn) [8]	further results
CN(C)CCC=C1c2ccccc2CCc2ccccc21 [Amitriptyline]	slight inhibitory effect	blocks the impact of intrauterine LPS at multiple levels of the spinal cord and appears to reduce astrocytic reactivity to below basal levels	significantly reduce LPS effect	reduced these scores	showed additional activity reducing spinal glial activation above TAK-242 alone	slight inhibitory effect	blocked the impact of intrauterine LPS at multiple levels of the spinal cord and reduced microglial reactivity to basal levels; also recorded: appears to reduce microglial reactivity to basal levels	effect on control cell line HEK293/Null [1]: inhibitory effect; LPS-induced activation of spinal astrocytes (GFAP staining, dorsal horn) ([3]; listed as amitriptyline): prevented LPS-induced activation of spinal astrocytes and microglia; also recorded: reduced spinal activation of astrocytes below baseline levels; also recorded: blocked the impact of intrauterine LPS at multiple levels of the spinal cord and reduced astrocytic reactivity to below basal levels; proportion of mice displaying severe grimace ([4]; intrauterine LPS with amitriptyline vs LPS only, categorical assessment, p=0.043): significantly reduced severe grimace behaviour; LPS-induced spinal glial activation ([5]; listed as amitriptyline): effect was prevented; clinical use [6]: has been used successfully to treat PMS and depression; LPS-induced activation of spinal microglia (Iba1 staining, dorsal horn) ([8]; listed as amitriptyline): prevented LPS-induced activation of spinal astrocytes and microglia
CNCCC=C1c2ccccc2CCc2ccccc21 [Nortriptyline]	slight inhibitory effect					slight inhibitory effect		Fold Induction [9]: slight potentiating effect
CCOC(=O)C1=CCCC[C@H]1S(=O)(=O)Nc1ccc(F)cc1Cl [TAK-242]		prevented LPS-induced activation of spinal astrocytes and microglia	significantly reduce LPS effect	reduced grimace scores non-significantly	effect was also prevented; also recorded: block spinal glial activation following intrauterine administration of LPS		prevented LPS-induced activation of spinal astrocytes and microglia; also recorded: reduced spinal activation of microglia below baseline levels	LPS-induced activation of spinal astrocytes (GFAP staining, dorsal horn) ([3]; listed as TAK242): blocked the impact of intrauterine LPS at multiple levels of the spinal cord and reduced astrocytic reactivity to below basal levels; also recorded: blocks the impact of intrauterine LPS at multiple levels of the spinal cord and appears to reduce astrocytic reactivity to below basal levels; LPS-induced activation of spinal microglia (Iba1 staining, dorsal horn) ([8]; listed as TAK242): blocked the impact of intrauterine LPS at multiple levels of the spinal cord and reduced microglia reactivity to basal levels; also recorded: appears to reduce microglia reactivity to basal levels
lipopolysaccharide [LPS]								activation of spinal astrocytes (GFAP staining) [3, 11]: induced activation of spinal astrocytes and microglia; also recorded: substantial increase in GFAP astrocyte staining throughout multiple levels of the spinal cord; also recorded: induced activation of astrocytes at multiple levels of the spinal levels compared with saline; Facial Grimace Score ([4]; intrauterine LPS vs saline): caused a significant increase in the presentation of Grimace behaviours in animals; activation of spinal glial cells ([5]; intra-uterine LPS): activate spinal glial cells, including astrocytes and microglia; activation of spinal microglia (Iba1 staining) [8, 11]: induced activation of spinal astrocytes and microglia; also recorded: localised increase in Iba1 microglial staining throughout select levels of the spinal cord; also recorded: induced activation of microglia with inconsistent effect across levels
